According to EP4603105A1, “PHARMACEUTICAL COMPOSITION CONTAINING CYCLIC COMPOUND HAVING SELECTIVE KRAS INHIBITORY EFFECT AGAINST HRAS AND NRAS” (CHUGAI SEIYAKU KABUSHIKI KAISHA, priority 2022, dated 2024):
Where two headings read alike, the source gives them in different places.

Assays:
HRAS wild-type protein = HRAS wild-type protein (Homo sapiens, UniProt P01112); test: Binding to HRAS by surface plasmon resonance (SPR), KD and KD ratio to KRAS
How it was run: (§1)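 Each cycle, GDP-bound biotin-Avi RAS was captured (~100–300 RU), compound concentrations were injected low to high for 75 s each at 100 µL/min, then the chip was regenerated. Buffer: HBS pH 7.4, 10 mM MgCl2, 10 µM GDP, 1 mM DTT, 4% DMSO; 30°C. KD from a 1:1 binding model.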

[1] = molecular target: GDP-bound KRAS wild-type protein (Homo sapiens, UniProt P01116); test: Binding to KRAS by surface plasmon resonance (SPR), dissociation constant KD
Sequence of GDP-bound KRAS wild-type protein (P01116 1-188 isoform P01116-2): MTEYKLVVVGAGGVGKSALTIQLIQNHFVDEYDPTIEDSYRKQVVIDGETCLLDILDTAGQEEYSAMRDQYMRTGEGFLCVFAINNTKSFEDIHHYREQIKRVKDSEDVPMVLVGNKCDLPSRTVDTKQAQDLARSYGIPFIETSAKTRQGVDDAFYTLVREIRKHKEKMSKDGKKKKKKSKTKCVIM
How it was run: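 Read-out is KD from 1:1 fitting of single-cycle kinetics sensorgrams, blank-cycle and reference-surface corrected. Proteins were GDP-loaded, biotinylated Avi-fusions freshly captured each cycle at roughly 100–300 RU. Runs were at 30°C in HBS pH 7.4 with MgCl2, GDP and 4% DMSO.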

[2] = test system: human lung cancer strain NCI-H441; test: NCI-H441 cell proliferation inhibitory activity (CellTiter-Glo, 4 days); format: cell-based; details: read-out: NCl-H441 IC50
How it was run: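 Signal came from […] measured per well once the reagent was added. Beforehand, cells were cultured at 37°C and 5% carbon dioxide on a compound series serially diluted in dimethyl sulfoxide.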

[3] = molecular target: GDP-bound NRAS wild-type protein (Homo sapiens, UniProt P01111); test: Binding to NRAS by surface plasmon resonance (SPR), KD and KD ratio to KRAS
Sequence of GDP-bound NRAS wild-type protein (P01111 whole entry): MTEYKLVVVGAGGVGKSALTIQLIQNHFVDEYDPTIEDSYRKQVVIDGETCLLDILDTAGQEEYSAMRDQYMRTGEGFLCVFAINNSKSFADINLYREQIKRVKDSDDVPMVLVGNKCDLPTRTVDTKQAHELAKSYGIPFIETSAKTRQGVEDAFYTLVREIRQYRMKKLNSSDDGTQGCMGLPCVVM
How it was run: as §1

[4] = ratio of KD for HRAS wild-type protein to KD for KRAS
[5] = ratio of KD for GDP-bound NRAS wild-type protein to KD for KRAS
[6] = ratio of KD with respect to HRAS wild-type protein to KD with respect to KRAS
[7] = Single Cycle Kinetics, 1:1 binding model
[8] = 50% proliferation inhibitory concentration, four days
[9] = ratio of KD with respect to GDP-bound NRAS wild-type protein to KD with respect to KRAS

Sequence of HRAS wild-type protein (P01112 whole entry): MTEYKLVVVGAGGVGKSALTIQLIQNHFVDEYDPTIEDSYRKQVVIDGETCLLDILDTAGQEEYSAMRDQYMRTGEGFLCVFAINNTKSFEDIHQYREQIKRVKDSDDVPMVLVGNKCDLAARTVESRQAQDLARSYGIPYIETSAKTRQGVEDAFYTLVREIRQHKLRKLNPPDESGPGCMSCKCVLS

Kd ([1]; 1:1 binding model) [nM] | IC50 ([2]; NCI-H441 cells, 4 days) [nM] | Kd ([1]; Single Cycle Kinetics) [nM] | Kd [1, 7] [nM] | IC50 [2, 8] [nM] | SMILES | HRAS /KRAS (HRAS wild-type protein; [4]) | NRAS /KRAS [3, 5] | HRAS /KRAS (HRAS wild-type protein; [6]) | NRAS /KRAS [3, 9]
0.11 | 6.3 |  |  |  | CCCOC[C@H]1C(=O)N[C@@H]([C@@H](C)CC)C(=O)N(C)CC(=O)N(C)[C@H]2C/C=C\CCN(C2=O)[C@@H](Cc2ccc(C)cc2)C(=O)N(C)CC(=O)N[C@@H](CCc2ccc(C(F)(F)F)c(OC)c2)C(=O)N2C[C@H](OCC)C[C@H]2C(=O)NC2(CC(C)(C)C2)C(=O)N(C)[C@@H](CC(C)(C)C)C(=O)N(C)[C@H](C(=O)N(C)C)CC(=O)N1C [PP2712] | B (a compound having 3 or more and less than 10 is denoted as B) | A (a compound having 10 or more and less than 20 is denoted as A) |  | 
0.95 | 107 |  |  |  | CC[C@H](C)[C@@H]1NC(=O)[C@H](COC)N(C)C(=O)C[C@@H](C(=O)N(C)C)N(C)C(=O)[C@H](C2CCCC2)N(C)C(=O)C2(CC(C)(C)C2)NC(=O)[C@@H]2C[C@@H](OC(C)C)CN2C(=O)[C@H](CCc2cc(F)c(C(F)(F)F)c(F)c2)NC(=O)CN(C)C(=O)[C@H](CC2CCCCC2)N2CC/C=C\C[C@@H](C2=O)N(C)C(=O)CN(C2CC2)C1=O [PP2511] | A (a compound having 10 or more and less than 20 is denoted as A) | A (a compound having 10 or more and less than 20 is denoted as A) |  | 
0.81 | 75 |  |  |  | CCC[C@H]1C(=O)N[C@@H]([C@@H](C)CC)C(=O)N(C)CC(=O)N(C)[C@H]2C/C=C\CCN(C2=O)[C@@H](Cc2ccc(C)cc2)C(=O)N(C)CC(=O)N[C@@H](CCc2ccc(Cl)c(Cl)c2)C(=O)N2C[C@H](OC3CCC3)C[C@H]2C(=O)NC2(CC(C)(C)C2)C(=O)N(C)[C@@H](C(CC)CC)C(=O)N(C)[C@H](C(=O)N(C)C)CC(=O)N1C [PP2644] | A (a compound having 10 or more and less than 20 is denoted as A) | AA (a compound having 20 or more is denoted as AA) |  | 
 | 25.8 | 0.72 |  |  | CCCO[C@@H]1C[C@H]2C(=O)NC3(CC(C)(C)C3)C(=O)N(C)[C@@H](C3CCCC3)C(=O)N(C)[C@H](C(=O)N(C)CC)CC(=O)N(C)[C@@H](COCC)C(=O)N[C@@H]([C@@H](C)CC)C(=O)N(C3CC3)CC(=O)N(C)[C@H]3C/C=C\CCN(C3=O)[C@@H](Cc3ccc(C(F)(F)F)cc3)C(=O)N(C)CC(=O)N[C@@H](CCc3ccc(C(F)(F)F)c(OC)c3)C(=O)N2C1 [PP3411] | A (a compound having 10 or more and less than 20 is denoted as A) | A (a compound having 10 or more and less than 20 is denoted as A) |  | 
 | 7.7 | 0.083 |  |  | CCC[C@H]1C(=O)N[C@@H]([C@@H](C)CC)C(=O)N(C)CC(=O)N(C)[C@H]2C/C=C\CCN(C2=O)[C@@H](Cc2ccc(C)cc2)C(=O)N(C)CC(=O)N[C@@H](CCc2ccc(C(F)(F)F)c(Cl)c2)C(=O)N2CC3(CC3)C[C@H]2C(=O)NC2(CCC2)C(=O)N(C)[C@@H](C2CCCC2)C(=O)N(C)[C@H](C(=O)N(C)C)CC(=O)N1C [PP3442] | B (a compound having 3 or more and less than 10 is denoted as B) | A (a compound having 10 or more and less than 20 is denoted as A) |  | 
 |  |  | 0.2 | 12.3 | CCO[C@@H]1C[C@H]2C(=O)NC3(CCC3)C(=O)N(C)[C@@H](C3CCCC3)C(=O)N(C)[C@H](C(=O)N3CCOCC3)CC(=O)N(C)[C@@H](CC(C)C)C(=O)N[C@@H]([C@@H](C)CC)C(=O)N(C)CC(=O)N(C)[C@H]3C/C=C\CCN(C3=O)[C@@H](Cc3ccc(C(F)(F)F)cc3)C(=O)N(C)CC(=O)N[C@@H](CCc3cc(F)c(C(F)(F)F)c(F)c3)C(=O)N2C1 [PP1282] |  |  | A (a compound having 10 or more and less than 20 is denoted as A) | A (a compound having 10 or more and less than 20 is denoted as A)
 | 30.7 | 0.71 |  |  | CCCOC[C@H]1C(=O)N[C@@H]([C@@H](C)OCCC)C(=O)N(CCC)CC(=O)N(C)[C@H]2C/C=C\CCN(C2=O)[C@@H](Cc2ccc(C(F)F)cc2)C(=O)N(C)CC(=O)N[C@@H](CCc2cc(F)c(C(F)(F)F)c(F)c2)C(=O)N2C[C@H](OC(C)C)C[C@H]2C(=O)N(C)C2(CCC2)C(=O)N(C)[C@@H](C(CC)CC)C(=O)N(C)[C@H](C(=O)N(C)C)CC(=O)N1C [PP3488] | A (a compound having 10 or more and less than 20 is denoted as A) | A (a compound having 10 or more and less than 20 is denoted as A) |  | 
 |  |  | 0.092 | 15.5 | CCO[C@@H]1C[C@H]2C(=O)NC3(CCC3)C(=O)N(C)[C@@H](C3CCCC3)C(=O)N(C)[C@H](C(=O)N(C)C)CC(=O)N(C)[C@@H](CC)C(=O)N[C@@H]([C@@H](C)CC)C(=O)N(C)CC(=O)N(C)[C@H]3CCCCCN(C3=O)[C@@H](Cc3ccc(F)cc3)C(=O)N(C)CC(=O)N[C@@H](CCc3cc(F)c(C(F)(F)F)c(F)c3)C(=O)N2C1 [PP1190] |  |  | B (a compound having 3 or more and less than 10 is denoted as B) | B (a compound having 3 or more and less than 10 is denoted as B)
 | 19.4 | 0.65 |  |  | CCCC[C@H]1C(=O)N[C@@H]([C@@H](C)CC)C(=O)N2CCC[C@H]2C(=O)N(C)[C@H]2C/C=C\CCN(C2=O)[C@@H](Cc2ccc(C(F)(F)F)cc2)C(=O)N(C)CC(=O)N[C@@H](CCc2ccc(C(F)(F)F)c(OC)c2)C(=O)N2C[C@H](OCC)C[C@H]2C(=O)OC2(CCC2)C(=O)N(C)[C@@H](C2CCCC2)C(=O)N(C)[C@H](C(=O)N(C)C)CC(=O)N1C [PP3365] | A (a compound having 10 or more and less than 20 is denoted as A) | AA (a compound having 20 or more is denoted as AA) |  | 
0.91 | 103 |  |  |  | CCC[C@H]1C(=O)N[C@@H]([C@@H](C)CC)C(=O)N(C2CC2)CC(=O)N(C)[C@H]2C/C=C\CCN(C2=O)[C@@H](Cc2ccc(C)cc2)C(=O)N(C)CC(=O)N[C@@H](CCc2ccc(Cl)c(Cl)c2)C(=O)N2C[C@H](OCC)C[C@H]2C(=O)NC2(CC(C)(C)C2)C(=O)N(C)[C@@H](C2CCCC2)C(=O)N(C)[C@H](C(=O)N(C)C)CC(=O)N1C [PP2559] | A (a compound having 10 or more and less than 20 is denoted as A) | A (a compound having 10 or more and less than 20 is denoted as A) |  | 
 | 13 | 0.36 |  |  | CCCO[C@@H]1C[C@H]2C(=O)NC3(CC(C)(C)C3)C(=O)N(C)[C@@H](C3CCCC3)C(=O)N(C)[C@H](C(=O)N(C)CC)CC(=O)N(C)[C@@H](COCC)C(=O)N[C@@H]([C@@H](C)CC)C(=O)N3C[C@@H](F)C[C@H]3C(=O)N(C)[C@H]3C/C=C\CCN(C3=O)[C@@H](Cc3ccc(C(F)(F)F)cc3)C(=O)N(C)CC(=O)N[C@@H](CCc3ccc(C(F)(F)F)c(OC)c3)C(=O)N2C1 [PP3417] | A (a compound having 10 or more and less than 20 is denoted as A) | A (a compound having 10 or more and less than 20 is denoted as A) |  | 
 | 3.7 | 0.85 |  |  | CCC[C@H]1C(=O)N[C@@H]([C@@H](C)CC)C(=O)N(C)CC(=O)N(C)[C@H]2C/C=C\CCN(C2=O)[C@@H](Cc2ccc(C(F)(F)F)cc2)C(=O)N(C)CC(=O)N[C@@H](CCc2ccc(C(F)(F)F)c(OC)c2)C(=O)N2CC3(CC3)C[C@H]2C(=O)N(C)C2(CCC2)C(=O)N(C)[C@@H]([C@@H](C)CC)C(=O)N(C)[C@H](C(=O)N(C)C)CC(=O)N1C [PP3291] | B (a compound having 3 or more and less than 10 is denoted as B) | A (a compound having 10 or more and less than 20 is denoted as A) |  | 
 |  |  | 0.12 | 52.3 | CCO[C@@H]1C[C@H]2C(=O)NC3(CCC3)C(=O)N(C)[C@@H](C3CCCC3)C(=O)N(C)[C@H](C(=O)N3CCOCC3)CC(=O)N(C)[C@@H](Cc3ccc(C#N)cc3)C(=O)N[C@@H]([C@@H](C)CC)C(=O)N(C)CC(=O)N(C)[C@H]3CCCCCN(C3=O)[C@@H](Cc3ccc(F)cc3)C(=O)N(C)CC(=O)N[C@@H](CCc3cc(F)c(C(F)(F)F)c(F)c3)C(=O)N2C1 [PP1187] |  |  | B (a compound having 3 or more and less than 10 is denoted as B) | B (a compound having 3 or more and less than 10 is denoted as B)
1.8 | 180 |  |  |  | CCCOC[C@H]1C(=O)N[C@@H]([C@@H](C)CC)C(=O)N(C)CC(=O)N(C)[C@H]2C/C=C\CCN(C2=O)[C@@H](CC2CCCCC2)C(=O)N(C)CC(=O)N[C@@H](CCc2cc(F)c(C(F)(F)F)c(F)c2)C(=O)N2C[C@H](OCC)C[C@H]2C(=O)NC2(CC(C)(C)C2)C(=O)N(C)[C@@H](C(CC)CC)C(=O)N(C)[C@H](C(=O)N(C)C)CC(=O)N1C [PP2501] | A (a compound having 10 or more and less than 20 is denoted as A) | AA (a compound having 20 or more is denoted as AA) |  | 
 | 6 | 0.41 |  |  | CCO[C@@H]1C[C@H]2C(=O)OC3(CCC3)C(=O)N(C)[C@@H](C3CCCC3)C(=O)N(C)[C@H](C(=O)N(C)C)CC(=O)N(C)[C@@H]([C@@H](C)OC)C(=O)N[C@@H]([C@@H](C)CC)C(=O)N(C3CC3)CC(=O)N(C)[C@H]3C/C=C\CCN(C3=O)[C@@H](Cc3ccc(C(F)(F)F)cc3)C(=O)N(C)CC(=O)N[C@@H](CCc3ccc(C(F)(F)F)c(OC)c3)C(=O)N2C1 [PP3375] | B (a compound having 3 or more and less than 10 is denoted as B) | A (a compound having 10 or more and less than 20 is denoted as A) |  | 
